Source: patent US10543171B2, “Dermal drug delivery using amphiphilic dendron-coil micelles” (THE BOARD OF TRUSTEES OF THE UNIVERSITY OF ILLINOIS, priority 2013, dated 2020)
pKd: −log10 of the molar value. “Also recorded” adds a separate entry of the source.

What was measured:
[1] = biological target: folate receptors (FR); conditions: read-out: affinity for FR (KD); cited from earlier work
[2] = skin deposition of Cou6 from two-dye dendron micelles (CLSM, spectrofluorometer); format: in vitro ADME, mouse
Protocol: To prepare two-dye dendron micelles, two milligrams of acetylated, RHO-labeled PDC (PDC-RHO-Ac) was combined with 10 mg of unlabeled surface modified PDC in 1.2 mL DMF, and 2% (wt %) of Cou6 was added to the mixture. The materials were fully dissolved and mixed by brief vortexing followed by gentle shaking for 2 h. The Cou6-encapsulated, RHO-labeled dendron micelles were prepared by the dialysis method, and the solid material was obtained by lyophilization as described above.
SKH-1 hairless mouse skin was exposed to the Cou6-loaded micelles with different surfaces for 24 h in the Franz cell setup. The skin area that was exposed to the treatment was carefully collected, rinsed twice with ddH2O for 10 min and embedded into cryomolds (Tissue-Tek®, Sakura Finetek USA, Inc., Torrance, Calif.). Skin was cryosectioned into 80 um-thick slices and placed on anti-frost glass slides. The slides were then fixed by 10% neutral buffered formalin for 10 min at RT and rinsed with ddH2O. The skin slides were mounted with antiphotobleaching mounting media with DAPI (Vector Laboratory Inc., Burlingame, Calif.) and covered with glass cover slips. […]
After the two-dye micelle experiment, the fluorescence intensity in the donor and receiver solutions, as well as skin extracts were detected using a SoftMax Pro spectrofluorometer (Spectra MAX, Molecular Devices Inc., Sunnyvale, Calif.). […]

[3] = 25° C.; cited from earlier work
[4] = test system: MDA-MB-231 cells; assay: in vitro anti-proliferation assay (MTS) against MDA-MB-231; format: cell-based; conditions: ER-negative; comparable drug concentrations; listed as free EDX

SMILES: Nc1nc2ncc(CNc3ccc(C(=O)N[C@@H](CCC(=O)O)C(=O)O)cc3)nc2c(=O)[nH]1 [FA, folic acid]
- pKd [1]: ~10.00

SMILES: CCN(CC)c1ccc2cc(-c3nc4ccccc4s3)c(=O)oc2c1 [free Cou6, Coumarin-6]
- Cou6 delivered into skin (skin extract) ([2]; Cou6-encapsulated, RHO-labeled micelles or free Cou6 in ethanol, mouse skin): 26.48±2.51%
- Cou6 distribution in skin layers (CLSM) ([2]; mouse skin cross-sections after Franz cell experiment): could not diffuse efficiently into the skin layers

SMILES: CC/C(=C(\c1ccc(O)cc1)c1ccc(OCCNC)cc1)c1ccccc1 [EDX, 4-hydroxy-N-desmethyl tamoxifen]
- partition coefficient (log P) [3]: 6.01
- anti-proliferative effect / cytotoxicity against MDA-MB-231 cells [4]: neither free EDX nor EDX-loaded micelles had significant cytotoxicity; also recorded: Neither free EDX nor EDX-loaded DMs exhibited significant anti-proliferative effect
